Tests used:
[1] = biological target: T1, human JAK1 (a.a. 837-1142) catalytic domain (Homo sapiens, UniProt P23458); assay: In vitro JAK kinase assay (HTRF, phosphorylation of biotinylated peptide), JAK1; format: biochemical; settings: ATP 1 mM
T1 construct: human JAK1 (a.a. 837-1142); His tag (N); made in house; host or cells: insect cells (baculovirus)
Protocol: Compounds herein were tested for inhibitory activity of JAK targets according to the following in vitro assay described in Park et al., Analytical Biochemistry 1999, 269, 94-104. The catalytic domains of human JAK1 (a.a. 837-1142) and JAK2 (a.a. 828-1132) with an N-terminal His tag were expressed using baculovirus in insect cells and purified. The catalytic activity of JAK1 and JAK2 was assayed by measuring the phosphorylation of a biotinylated peptide. The phosphorylated peptide was detected by homogenous time resolved fluorescence (HTRF). […] For the 1 mM IC50 measurements, ATP concentration in the reactions was 1 mM. Reactions were carried out at room temperature for 1 hour and then stopped with 20 μL 45 mM EDTA, 300 nM SA-APC, 6 nM Eu-Py20 in assay buffer (Perkin Elmer, Boston, Mass.). Binding to the Europium labeled antibody took place for 40 minutes and HTRF signal was measured on a Fusion plate reader (Perkin Elmer, Boston, Mass.). […] Data is indicated as ranges, wherein “+” is less than 5 nM; “++” is 5 nM to 25 nM; “+++” is greater than 25 nM to 100 nM; and “++++” is greater than 100 nM.

[2] = biological target: T2, JAK2 (a.a. 828-1132) catalytic domain (Homo sapiens, UniProt O60674); assay: In vitro JAK kinase assay (HTRF, phosphorylation of biotinylated peptide), JAK2; format: biochemical; settings: ATP 1 mM
T2 construct: JAK2 (a.a. 828-1132); His tag (N); made in house; host or cells: insect cells (baculovirus)
Protocol: Compounds herein were tested for inhibitory activity of JAK targets according to the following in vitro assay described in Park et al., Analytical Biochemistry 1999, 269, 94-104. The catalytic domains of human JAK1 (a.a. 837-1142) and JAK2 (a.a. 828-1132) with an N-terminal His tag were expressed using baculovirus in insect cells and purified. The catalytic activity of JAK1 and JAK2 was assayed by measuring the phosphorylation of a biotinylated peptide. The phosphorylated peptide was detected by homogenous time resolved fluorescence (HTRF). […] For the 1 mM IC50 measurements, ATP concentration in the reactions was 1 mM. Reactions were carried out at room temperature for 1 hour and then stopped with 20 μL 45 mM EDTA, 300 nM SA-APC, 6 nM Eu-Py20 in assay buffer (Perkin Elmer, Boston, Mass.). Binding to the Europium labeled antibody took place for 40 minutes and HTRF signal was measured on a Fusion plate reader (Perkin Elmer, Boston, Mass.). See Tables A and B for data related to compounds of the invention (at 1 mM). Data is indicated as ranges, wherein “+” is less than 5 nM; “++” is 5 nM to 25 nM; “+++” is greater than 25 nM to 100 nM; and “++++” is greater than 100 nM.

T1 sequence (P23458 849-1154): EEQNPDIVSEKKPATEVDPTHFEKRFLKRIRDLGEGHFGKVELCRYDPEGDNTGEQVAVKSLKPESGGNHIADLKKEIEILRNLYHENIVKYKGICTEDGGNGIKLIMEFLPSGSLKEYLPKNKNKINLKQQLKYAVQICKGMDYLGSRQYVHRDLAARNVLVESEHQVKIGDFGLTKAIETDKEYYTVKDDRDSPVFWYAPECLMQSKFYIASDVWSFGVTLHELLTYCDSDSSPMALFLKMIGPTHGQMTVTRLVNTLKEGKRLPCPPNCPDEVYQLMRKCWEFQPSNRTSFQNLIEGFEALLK
T2 sequence (O60674 828-1132): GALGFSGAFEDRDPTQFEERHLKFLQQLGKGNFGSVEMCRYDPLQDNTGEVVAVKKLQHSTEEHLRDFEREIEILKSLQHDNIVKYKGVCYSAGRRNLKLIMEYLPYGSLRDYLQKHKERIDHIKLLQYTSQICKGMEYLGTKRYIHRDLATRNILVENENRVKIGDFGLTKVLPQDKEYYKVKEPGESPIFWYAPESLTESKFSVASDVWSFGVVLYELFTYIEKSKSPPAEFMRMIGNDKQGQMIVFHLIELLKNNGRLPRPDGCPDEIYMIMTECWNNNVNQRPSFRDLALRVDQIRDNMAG

SMILES	IC50 ([1]; Table A) [nM]	IC50 ([2]; Table A) [nM]	IC50 ([1]; Table B) [nM]	IC50 ([2]; Table B) [nM]
C[C@@H]1CCCN1Cc1cc(F)cc(OC2CCN(CC(CC#N)n3cc(-c4ncnc5[nH]ccc45)cn3)CC2F)c1 (single isomer, unassigned) [Example 32 diastereomer 2]			< 5	5 to 25
N#CCC(CN1CCC(Oc2cc(F)cc(C(=O)NCCC(N)=O)c2)CC1)n1cc(-c2ncnc3[nH]ccc23)cn1 (centres unmarked) [Example 14, N-(3-Amino-3-oxopropyl)-3-[1(1-{3-cyano-2-[4-(7H-pyrrolo[2,3-d]pyrimidin-4-yl)-1H-pyrazol-1-yl]propyl}piperidin-4-yl)oxy]-5-fluorobenzamide tris(trifluoroacetate)]	< 5	5 to 25		
N#CCC(CN1CCC(Oc2cc(F)cc(C(=O)NCCN3CCOCC3)c2)CC1)n1cc(-c2ncnc3[nH]ccc23)cn1 (centres unmarked) [Example 16, 3-[(1-{3-Cyano-2-[4-(7H-pyrrolo[2,3-d]pyrimidin-4-yl)-1H-pyrazol-1-yl]propyl}piperidin-4-yl)oxy]-5-fluoro-N-(2-morpholin-4-ylethyl)benzamide tris(trifluoroacetate)]	< 5	5 to 25		
N#CCC(CN1CCC(Oc2cc(F)cc(CN3CCOCC3)c2)CC1)n1cc(-c2ncnc3[nH]ccc23)cn1 (centres unmarked) [Example 26, 4-{4-[3-fluoro-5-(morpholin-4-ylmethyl)phenoxy]piperidin-1-yl}-3-[4-(7H-pyrrolo[2,3-d]pyrimidin-4-yl)-1H-pyrazol-1-yl]butanenitrile]	5 to 25	> 100		
N#CCC(CN1CCC(Oc2cc(F)cc(CN3CCC(F)(F)C3)c2)CC1)n1cc(-c2ncnc3[nH]ccc23)cn1 (centres unmarked) [Example 27, 4-(4-{3-[(3,3-difluoropyrrolidin-1-yl)methyl]-5-fluorophenoxy}piperidin-1-yl)-3-[4-(7H-pyrrolo[2,3-d]pyrimidin-4-yl)-1H-pyrazol-1-yl]butanenitrile]	5 to 25	> 100		
C[C@@H]1CCCN1Cc1cc(F)cc(OC2CCN(CC(CC#N)n3cc(-c4ncnc5[nH]ccc45)cn3)CC2)c1 (stereo partly drawn) [Example 28, 4-[4-(3-fluoro-5-{[(2R)-2-methylpyrrolidin-1-yl]methyl}phenoxy)piperidin-1-yl]-3-[4-(7H-pyrrolo[2,3-d]pyrimidin-4-yl)-1H-pyrazol-1-yl]butanenitrile]	< 5	25 to 100		

Next, values leading:

IC50 ([1]; Table A) [nM]	IC50 ([2]; Table A) [nM]	IC50 ([1]; Table B) [nM]	IC50 ([2]; Table B) [nM]	SMILES
< 5	25 to 100			N#CCC(CN1CCC(Oc2cc(F)cc(CN3CCCC3)c2)CC1)n1cc(-c2ncnc3[nH]ccc23)cn1 (centres unmarked) [Example 24, 4-{4-[3-fluoro-5-(pyrrolidin-1-ylmethyl)phenoxy]piperidin-1-yl}-3-[4-(7H-pyrrolo[2,3-d]pyrimidin-4-yl)-1H-pyrazol-1-yl]butanenitrile tetrakis(trifluoroacetate)]
< 5	25 to 100			N#CCC(CN1CCC(Oc2cc(F)cc(CN3CCC3)c2)CC1)n1cc(-c2ncnc3[nH]ccc23)cn1 (centres unmarked) [Example 22]
5 to 25	25 to 100			N#CCC(CN1CCC(Oc2cc(F)cc(CNC3CCC3)c2)CC1)n1cc(-c2ncnc3[nH]ccc23)cn1 (centres unmarked) [Example 23, 4-(4-{3-[(cyclobutylamino)methyl]-5-fluorophenoxy}piperidin-1-yl)-3-[4-(7H-pyrrolo[2,3-d]pyrimidin-4-yl)-1H-pyrazol-1-yl]butanenitrile tetrakis(trifluoroacetate)]
< 5	25 to 100			N#CCC(CN1CCC(Oc2cc(F)cc(Cl)c2)CC1)n1cc(-c2ncnc3[nH]ccc23)cn1 (centres unmarked) [Example 2]
5 to 25	25 to 100			N#CCC(CN1CCC(Oc2cc(F)c(F)c(F)c2)CC1)n1cc(-c2ncnc3[nH]ccc23)cn1 (centres unmarked) [Example 4, 3-[4-(7H-Pyrrolo[2,3-d]pyrimidin-4-yl)-1H-pyrazol-1-yl]-4-[4-(3,4,5-trifluorophenoxy)piperidin-1-yl]butanenitrile tris(trifluoroacetate)]
< 5	5 to 25			N#CCCNC(=O)c1cc(F)cc(OC2CCN(CC(CC#N)n3cc(-c4ncnc5[nH]ccc45)cn3)CC2)c1 (centres unmarked) [Example 12, N-(2-Cyanoethyl)-3-[(1-{3-cyano-2-[4-(7H-pyrrolo[2,3-d]pyrimidin-4-yl)-1H-pyrazol-1-yl]propyl}piperidin-4-yl)oxy]-5-fluorobenzamide tris(trifluoroacetate)]
< 5	5 to 25			CC(C)NC(=O)c1cc(F)cc(OC2CCN(CC(CC#N)n3cc(-c4ncnc5[nH]ccc45)cn3)CC2)c1 (centres unmarked) [Example 11, 3-[(1-{3-Cyano-2-[4-(7H-pyrrolo[2,3-d]pyrimidin-4-yl)-1H-pyrazol-1-yl]propyl}piperidin-4-yl)oxy]-5-fluoro-N-isopropylbenzamide tris(trifluoroacetate)]

Source: patent US9034884B2, “Heterocyclic-substituted pyrrolopyridines and pyrrolopyrimidines as JAK inhibitors” (Incyte Corporation, priority 2010, dated 2015)
